Measured values published in paper PMC12811501, “A plant-derived antimicrobial peptide with multiple mechanisms of action exhibiting antibacterial and antibiofilm activities comparable to or superior to polymyxin B” (Current Research in Microbial Sciences, 2025).
≈ marks a conversion by molar mass, not a printed value. Like-named read-outs stand apart in the source and are kept apart here. Residues, ends and D or L forms follow the SMILES beside them. No end group written: not given here.

Columns and labels:
[1] = test system: Acinetobacter baumannii pre-formed biofilm; experiment: microbe, parasite or virus in culture; type: cell-based; conditions: for degradation of pre-formed biofilm: A. baumannii biofilm pre-formed 24 h, 24 h of treatment, Crystal Violet OD550; for MBC: A. baumannii biofilm pre-formed 24 h in MHB
Procedure: For the biofilm eradication assay the difference was at the beginning of the experiments when bacteria were pre-cultured for 24 h or 72 h in MHB with a starting OD600 = 0.01. Then bacterial suspensions were removed from the wells followed by washing three times with 200 µl of 1/2 MHB. Subsequently fresh 1/10 MHB was added to the wells containing the respective dilutions of NCR169C17–38, meropenem or polymixin B and the treatment lasted either 3 h or 24 h. Experiments were done in three biological replicates.
To assess whether the NCR169C17–38 peptide or the tested antibiotics could eradicate pre-formed biofilms, A. baumannii was first cultured in MHB for 24 h, then treated with NCR169C17–38, meropenem or polymyxin B for either 3 h or 24 h, using the same concentration range as in the previous experiment. Both bacterial survival within the pre-formed biofilm and the amount of residual biofilm were assessed. […] In contrast, neither of the two antibiotics completely eliminated the bacteria within the tested concentration range. […] This 24 h of treatment was repeated on mature biofilm (pre-formed for 72 h) and the results were very similar (Supplementary Fig. 1.).

E. coli = experiment: microbe, parasite or virus in culture; conditions: for FBC-A: (MBC of Drug A in combination)/(MBC of Drug A alone), combination with NCR169C17–38 (Drug B), checkerboard; for FBC-A / FBC-B / FBC / Action / FBC-A (µM): concentration of Drug A for the indicated action / FBC-B (µM): concentration of Drug B for the indicated action: E. coli; for FBC-A / FBC-A (µM): concentration of Drug A for the indicated action: 3 h 37 °C; for FBC-B: (MBC of NCR169C17–38 in combination)/(MBC alone), value refers to NCR169C17–38 (Drug B) combined with the Drug A; for FBC: FBC index = FBC-A + FBC-B, Drug A combined with NCR169C17–38; for Action: interaction of Drug A with NCR169C17–38 by FBC index; for FBC-A (µM): concentration of Drug A for the indicated action / FBC-B (µM): concentration of Drug B for the indicated action: value in brackets; for FBC-A (µM): concentration of Drug A for the indicated action: Drug A in combination with NCR169C17–38, checkerboard; for FBC-B (µM): concentration of Drug B for the indicated action: concentration of NCR169C17–38 (Drug B) combined with Drug A
Procedure: Streptomycin was tested at concentrations ranging from 25 μM to 0.4 μM, meropenem from 200 μM to 3.1 μM, and polymyxin B from 6.3 μM to 0.1 μM. NCR335N1–19 was tested in a concentration range from 3.1 μM to 0.05 μM, while NCR335C13–33 from 12.5 μM to 0.2 μM. […] The initial E. coli density in each well were adjusted to OD600 = 0.01 corresponding to ∼10^6 bacteria/ml. […] The effectiveness of combination treatments was measured using the fractional bactericidal concentration (FBC) index, which is a metric used to assess the interaction between antimicrobial agents, determining whether their combined effect is synergistic, additive, or antagonistic. First, the MBC values of polymyxin B, meropenem, streptomycin, NCR335N1–19, and NCR335C13–33 were determined in E. coli. Subsequently, their combinations with NCR169C17–38 were examined using the FBC index. FBC = FBCA + FBCB. FBCA = (MBCA in combination) / (MBCA alone); FBCB = (MBCB in combination) / (MBCB alone). Experiments were done in three biological replicates.
The use of multiple antimicrobial agents can simultaneously target different physiological pathways in microbial cells, reducing the likelihood of resistance development and increasing treatment efficacy. To explore this strategy, we assessed the combined antibacterial effects of the NCR169C17–38 peptide with several antibiotics - specifically polymyxin B, meropenem, and streptomycin - against E. coli. […] Combination treatments were then performed using the standard checkerboard titration method, with each agent co-administered with NCR169C17–38.

Acinetobacter baumannii = experiment: microbe, parasite or virus in culture; type: cell-based; conditions: A. baumannii; for MBC: 24 h of treatment in MHB (method: 1/10 MHB), detected at the end of the biofilm inhibition test, read-out: MBC, Inhibition test after 24 h
Procedure: For the biofilm inhibition assay the antimicrobial activity test was done in 1/10 MHB using A. baumannii treated with the respective dilutions of NCR169C17–38, meropenem or polymixin B for 24 h. After taking the 5 μl samples at the end of the treatment and placed on LB agar to detect bacterial growth, the rest of the grown bacterial suspensions were discarded from the plate and the remaining biofilm on the walls of the plate was then washed three times with sterile water and stained using 1 % Crystal Violet (CV) for 15 min to visualize the produced biofilm. The non-adherent CV dye was then removed by washing with water three times. The plate was left for complete drying, then the biofilm-bound CV dye was dissolved in 200 µl of 30 % acetic-acid with shaking over 15 min. The absorbance was measured at OD550 using a HIDEX Plate Reader (Hidex Sense Microplate Reader with Plate Reader Software version 5064, Hidex, Finland). All measurements were repeated three times.
We examined the capacity of NCR169C17–38 to inhibit biofilm formation by Acinetobacter baumannii, a pathogen well known for its robust biofilm production and high level of antibiotic resistance. […] Additionally, at the end of the experiment we determined the quantity of the biofilm and thereby evaluated their ability to inhibit biofilm formation during culturing the bacteria in the presence of different concentrations of the agents (Fig. 1.A). We tested concentrations of NCR169C17–38 ranging from 25 μM to 0.4 μM, meropenem from 100 μM to 1.6 μM and polymyxin B from 3.1 μM to 0.05 μM.

[2] = test system: Enterococcus faecalis (ATCC 29212); experiment: Minimal bactericidal concentration (MBC) assay; type: cell-based; conditions: plated on LB agar
Description: (§1) The Gram-positive strains Enterococcus faecalis (ATCC 29212), Staphylococcus aureus (HNCMO112011), and Listeria monocytogenes (ATCC 19111), and the Gram-negative strains Pseudomonas aeruginosa (ATCC 27853), Escherichia coli (ATCC 8739), Salmonella enterica (ATCC 13076), Klebsiella pneumoniae (NCTC 13440), and Acinetobacter baumannii (ATCC 17978) were obtained from ATCC (United States) and NCTC (National Collection of Type Cultures – England).
(§2) Minimal bactericidal concentrations (MBC) of peptides and reference antibiotics were determined in 20 mM potassium phosphate buffer (PPB, pH 7.4) and Mueller–Hinton broth (MHB) as described by ([Jenei et al., 2020]). Briefly, bacterial cultures were grown to mid-log phase, washed, adjusted to OD₆₀₀ = 0.1 (∼10⁷ CFU/mL), added 10 μl of it into 100 μl mixture and incubated in 96-well plates with 2-fold serial dilutions of peptides or antibiotics. After incubation at 37 °C with shaking, bacterial viability was assessed by plating 5 μL aliquots on LB agar. MBC was defined as the lowest concentration yielding no colony growth. Experiments were done at least in three biological replicates.
(§3) NCR169, its oxidized form (NCR169ox), and its variant in which the four cysteines were replaced with serines (NCR169-C9,15,28,33/S) (Table 1.A) were chemically synthesized with C-terminal amidation. These peptides were tested for antimicrobial activity against a panel of ESKAPE pathogens - Enterococcus faecalis, Staphylococcus aureus, Klebsiella pneumoniae, Acinetobacter baumannii, Pseudomonas aeruginosa, E. coli - as well as Listeria monocytogenes and Salmonella enterica. Peptides were applied to 10^6 log-phase bacterial cultures in a two-fold dilution series (25 - 0.1 µM) in potassium phosphate buffer (PPB) at pH 7.4. After three hours of incubation, 5 µl of each treatment was plated on LB agar and incubated overnight at 37 °C to assess bacterial survival. Minimal bactericidal concentrations (MBCs), defined as the lowest concentration eliminating bacterial growth, are presented in Table 1B.

[3] = type: physicochemical; conditions: for solubility / visible turbidity upon peptide addition: pH 7.4
[4] = test system: Staphylococcus aureus (HNCMO112011); type: cell-based; conditions: HNCMO112011, 3 h
Description: as §1, §2, §3

[5] = test system: Escherichia coli (ATCC 8739); type: cell-based; conditions: ATCC 8739, 3 h
Description: as §1
as §2, with “Experiments were done at least in three biological replicates.” left out
Three biological replicates were treated at OD600 = 0.2 with a final concentration of 1.6 µM NCR169C17–38 peptide for 20 min, while the control samples were treated with the same amount of water for 20 min. […] Quality and quantity was detected using 2200 TapeStation (Agilent) and Qubit RNA BR Assay […]

| Molecule | degradation of pre-formed biofilm [1] | FBC-A (E. coli) | FBC-B (E. coli) | FBC (E. coli) | Action (E. coli) | FBC-A (µM): concentration of Drug A for the indicated action (E. coli) [µM] | FBC-B (µM): concentration of Drug B for the indicated action (E. coli) [µM] | solubility / visible turbidity upon peptide addition [3] | further results |
| --- | --- | --- | --- | --- | --- | --- | --- | --- | --- |
| Polymyxin B | required at least their MBC or higher concentrations | 0.125 | 0.25 | 0.38 | Synergism (< 0.5: synergism) | 0.1 | 0.4 |  | MBC ([1]; 3 h treatment (method: 1/10 MHB), read-out: MBC, Eradication test after 3 h): >3.2 µM; MBC ([1]; 24 h treatment (method: 1/10 MHB), read-out: MBC, Eradication test after 24 h): >3.2 µM; eradication of pre-formed biofilms at sub-MBC concentration ([1]; A. baumannii, as stated in the abstract): not observed; Drug A MBC (E. coli; Drug A alone, E. coli ~10^6 bacteria/ml, MHB/PPB mixture, 3 h at 37 °C, plated on LB agar, three biological replicates): 0.8 µM; MBC (Acinetobacter baumannii): 0.8 µM |
| EDIGHIKYCGIVDDCYKSKKPLFKIWKCVENVCVLWYK (disulfide) (disulfide (positions not given here); also: disulfide pairing not given here) [NCR169ox, oxidized form of NCR169] |  |  |  |  |  |  |  | no visible turbidity | MBC E. f. ([2]; PPB pH 5.8, 3 h treatment): - (lack of bactericidal activity up to 25 µM); MBC E. f. ([2]; PPB pH 7.4, 3 h treatment, 10^6 log-phase bacteria, two-fold dilutions 25-0.1 µM, * = best MBC value measured, more than two fold dilution differences in replicates): - (lack of bactericidal activity up to 25 µM) |
| C[C@@H](O)[C@H]1C(=O)N2C(C(=O)O)=C(S[C@@H]3CN[C@H](C(=O)N(C)C)C3)[C@H](C)[C@H]12 [Meropenem] | successful even at sub-MBC level | 0.25 | 0.25 | 0.5 | Synergism (< 0.5: synergism) | 50 | 0.4 |  | MBC ([1]; Acinetobacter baumannii, 3 h treatment (method: 1/10 MHB), read-out: MBC, Eradication test after 3 h): > 100 µM; MBC ([1]; Acinetobacter baumannii, 24 h treatment (method: 1/10 MHB), read-out: MBC, Eradication test after 24 h): > 100 µM; MBC (E. coli; Escherichia coli, 3 h, read-out: Drug A MBC): 200 µM; inhibition of biofilm formation (Crystal Violet, OD550) (Acinetobacter baumannii; 24 h treatment, NCR169C17–38 25-0.4 μM, meropenem 100-1.6 μM, polymyxin B 3.1-0.05 μM): remaining effective even at lower doses; MBC (Acinetobacter baumannii; Acinetobacter baumannii): 50 µM (≈ 19.2 µg/mL) |
| CC[C@H](C)[C@H](NC(=O)CNC(=O)[C@H](CS)NC(=O)[C@H](Cc1ccc(O)cc1)NC(=O)[C@H](CCCCN)NC(=O)[C@@H](NC(=O)[C@H](Cc1c[nH]cn1)NC(=O)CNC(=O)[C@@H](NC(=O)[C@H](CC(=O)O)NC(=O)[C@@H](N)CCC(=O)O)[C@@H](C)CC)[C@@H](C)CC)C(=O)N[C@H](C(=O)N[C@@H](CC(=O)O)C(=O)N[C@@H](CC(=O)O)C(=O)N[C@@H](CS)C(=O)N[C@@H](Cc1ccc(O)cc1)C(=O)N[C@@H](CCCCN)C(=O)N[C@@H](CO)C(=O)N[C@@H](CCCCN)C(=O)N[C@@H](CCCCN)C(=O)N1CCC[C@H]1C(=O)N[C@@H](CC(C)C)C(=O)N[C@@H](Cc1ccccc1)C(=O)N[C@@H](CCCCN)C(=O)N[C@H](C(=O)N[C@@H](Cc1c[nH]c2ccccc12)C(=O)N[C@@H](CCCCN)C(=O)N[C@@H](CS)C(=O)N[C@H](C(=O)N[C@@H](CCC(=O)O)C(=O)N[C@@H](CC(N)=O)C(=O)N[C@H](C(=O)N[C@@H](CS)C(=O)N[C@H](C(=O)N[C@@H](CC(C)C)C(=O)N[C@@H](Cc1c[nH]c2ccccc12)C(=O)N[C@@H](Cc1ccc(O)cc1)C(=O)N[C@@H](CCCCN)C(N)=O)C(C)C)C(C)C)C(C)C)[C@@H](C)CC)C(C)C [NCR169] (H-EDIGHIKYCGIVDDCYKSKKPLFKIWKCVENVCVLWYK-NH2) |  |  |  |  |  |  |  | visible white turbidity | solubility / visible turbidity ([3]; pH 5.8): eliminating visible turbidity |
| YKSKKPLFKIWK-NH2 [NCR169_16–27] |  |  |  |  |  |  |  |  | MBC Sa [4]: 25 µM; MBC Ec [5]: 6.3 µM |
| EDIGHIKYSGIVDDSYKSKKPLFKIWKSVENVSVLWYK-NH2 [NCR169-C9,15,28,33/S] |  |  |  |  |  |  |  | no visible turbidity |  |
